A word on the IC50: it is the point on the concentration scale where inhibition reaches its midpoint.

Consider seven molecules from PMC5327789 (Journal of natural products, 2016).

Data set [1] concerns WI-38 cell line (normal embryonic lung tissue). The class given is cell-based.
The test system of data set [2] is P. falciparum strain Dd2 (chloroquine-resistant). In words: P. falciparum in vitro growth inhibition assay. The data set is classed as cell-based, Plasmodium falciparum. The following applies: for antiplasmodial activity in words: highest concentration tested 25 μM.

With `COC(=O)CCC(=O)OC/C(C)=C/C(=O)OC[C@]1(O)[C@H]2C[C@H]2[C@]2(C)[C@@H]3C[C@@]4(OO)C5=C(/C(=C(\C)C(=O)OC)C(=O)[C@H](O)[C@@]5(C)[C@@H]5C[C@@H]54)[C@@]34OC(=O)C(CO)=C4C[C@@H]12` [Compound 4, Fortunilide D], the “increase of toxicity toward mammalian cells compared with counterpart” value in data set [1] (human, 24 h) is 6 fold.
Take `COC(=O)/C(C)=C1/C(=O)[C@H](O)[C@]2(C)C3=C(C[C@@H]4[C@]5(OC(=O)C6=C5C[C@H]5[C@](O)(COC(=O)/C=C(\C)COC(=O)CCC(=O)OC6)[C@H]6C[C@H]6[C@]45C)[C@H]31)[C@H]1C[C@H]12` [Compound 7, Fortunilide G]: in data set [1] (human, 24 h), the “decrease of mammalian cytotoxicity compared with counterpart” value was determined as 5 fold.
Regarding `COC(=O)/C(C)=C1\C(=O)[C@H](O)[C@]2(C)C3=C(C[C@@H]4[C@]5(OC(=O)C(C)=C5C[C@H]5[C@H](COC(C)=O)[C@H]6C[C@H]6[C@]45C)[C@H]31)[C@H]1C[C@H]12` [Compound 25, shizukaol E], the “antiplasmodial activity in words” value in data set [2] is “micromolar range”.
On the same count and under the same terms, the result for `C/C=C(\C)C(=O)OC[C@]1(O)[C@H]2C[C@H]2[C@]2(C)[C@@H]3C[C@@]4(O)C5=C(/C(=C(\C)C(=O)OC)C(=O)[C@H](O)[C@@]5(C)[C@@H]5C[C@@H]54)[C@@]34OC(=O)C(COC(C)=O)=C4C[C@@H]12` [Compound 27, sarcandrolide E] reads “inactive”.
Regarding `COC(=O)/C(C)=C1\C(=O)[C@H](O)[C@]2(C)C3=C(C[C@@H]4[C@]5(OC(=O)C6=C5C[C@H]5[C@](O)(COC(=O)/C(C)=C/COC(=O)[C@@H](O)CC(=O)OC6)[C@H]6C[C@H]6[C@]45C)[C@H]31)[C@H]1C[C@H]12` [Compound 29, shizukaol G], the “increase of toxicity toward mammalian cells compared with counterpart” value in data set [1] (human, 24 h) is recorded as ~ 10 fold.
`C=C1[C@@H]2C[C@@H]2[C@]2(C)[C@@H]3CC4=C5[C@H](/C(=C(\C)C(=O)OC)C(=O)[C@H](O)[C@@]5(C)[C@@H]5C[C@H]45)[C@@]34OC(=O)C(C)=C4C[C@@H]12` [Compound 32, shizukaol A]: in data set [2], the “antiplasmodial activity in words” value was “micromolar range”.
Regarding shizukaol C [Compound 17], the IC50 worked out at 770 nM in data set [1] (read-out: WI-38 IC50, WI-38 cell line, 24 h incubation) and 21 nM in data set [2] (read-out: P. falciparum IC50, Table 6).
